Results published in patent publication US10561749B2, “Nuclear medicine diagnostic imaging agent” (Kyoto University, priority 2015, dated 2020).

How the values were obtained:
Format in all cases: biochemical
EGFR (L858R) = target: T1, EGFR (L858R) (Homo sapiens, UniProt P00533, L858R); assay: EGFR tyrosine kinase inhibiting activity, ADP-Glo (EGFR (L858R) Kinase Enzyme System); settings: read-out: EGFR Kinase inhibition: IC50 L858R
T1 construct: purchased Promega V5322
Procedure: (§1) Four types of EGFR Kinase Enzyme Systems, specifically, EGFR Kinase Enzyme System (Catalog No. V3831), EGFR (L858R) Kinase Enzyme System (Catalog No. V5322), EGFR (T790M) Kinase Enzyme System (Catalog No. V4506), and EGFR (T790M, L858R) Kinase Enzyme System (Catalog No. V5324) were used (all of them were manufactured by Promega).
(§2) The measurement was carried out according to the Promega protocol applications guide. That is, a buffer solution (40 mM Tris-HCl, pH 7.5, 20 mM MgCl2, 50 μM DTT and 0.1 mg/mL BSA) was used as a dilute solution. The concentration of each compound started at 20 μM (the final concentration, including 1% DMSO) with 5-fold dilutions with the buffer solution. Thus, ten concentrations of each compound were prepared. Then, 2 μL of each concentration of each compound thus obtained was added to each well of a 384-well plate. Furthermore, 4 μL (20 ng) of an EGFR Kinase […] that came with each EGFR Kinase Enzyme System was added to each well, which then was incubated at room temperature for ten minutes. Subsequently, 4 μL of mixed solution of ATP (10 μM) and Poly(Glu, Tyr) (2 μg) substrate was added to each well, which then was incubated at room temperature for one hour. Then, 10 μL of ADP-Glo™ Reagent (ADP-Glo™ Kinase Assay, Promega) was added to each well, which then was reacted at room temperature for 40 minutes. Furthermore, 20 μL of Kinase Detection Reagent (ADP-Glo™ Kinase Assay, Promega) was added to each well, which then was reacted at room temperature for one hour. […] From the data thus obtained, dose-response curves and IC50 were calculated using GraphPad Prism 5 (GraphPad Software, Inc.). In Table 1 below, WT indicates the measurement results obtained with the EGFR Kinase Enzyme System, L858R indicates the measurement results obtained with the EGFR (L858R) Kinase Enzyme System, T790M indicates the measurement results obtained with the EGFR (T790M) Kinase Enzyme System, and DM indicates the measurement results obtained with the EGFR (T790M, L858R) Kinase Enzyme System.

[1] = target: T2, EGFR tyrosine kinase (WT) (Homo sapiens, UniProt P00533); assay: EGFR tyrosine kinase inhibiting activity, ADP-Glo (EGFR Kinase Enzyme System, WT); settings: read-out: EGFR Kinase inhibition: IC50 WT
T2 construct: purchased Promega V3831
T2 sequence (P00533 25-1210): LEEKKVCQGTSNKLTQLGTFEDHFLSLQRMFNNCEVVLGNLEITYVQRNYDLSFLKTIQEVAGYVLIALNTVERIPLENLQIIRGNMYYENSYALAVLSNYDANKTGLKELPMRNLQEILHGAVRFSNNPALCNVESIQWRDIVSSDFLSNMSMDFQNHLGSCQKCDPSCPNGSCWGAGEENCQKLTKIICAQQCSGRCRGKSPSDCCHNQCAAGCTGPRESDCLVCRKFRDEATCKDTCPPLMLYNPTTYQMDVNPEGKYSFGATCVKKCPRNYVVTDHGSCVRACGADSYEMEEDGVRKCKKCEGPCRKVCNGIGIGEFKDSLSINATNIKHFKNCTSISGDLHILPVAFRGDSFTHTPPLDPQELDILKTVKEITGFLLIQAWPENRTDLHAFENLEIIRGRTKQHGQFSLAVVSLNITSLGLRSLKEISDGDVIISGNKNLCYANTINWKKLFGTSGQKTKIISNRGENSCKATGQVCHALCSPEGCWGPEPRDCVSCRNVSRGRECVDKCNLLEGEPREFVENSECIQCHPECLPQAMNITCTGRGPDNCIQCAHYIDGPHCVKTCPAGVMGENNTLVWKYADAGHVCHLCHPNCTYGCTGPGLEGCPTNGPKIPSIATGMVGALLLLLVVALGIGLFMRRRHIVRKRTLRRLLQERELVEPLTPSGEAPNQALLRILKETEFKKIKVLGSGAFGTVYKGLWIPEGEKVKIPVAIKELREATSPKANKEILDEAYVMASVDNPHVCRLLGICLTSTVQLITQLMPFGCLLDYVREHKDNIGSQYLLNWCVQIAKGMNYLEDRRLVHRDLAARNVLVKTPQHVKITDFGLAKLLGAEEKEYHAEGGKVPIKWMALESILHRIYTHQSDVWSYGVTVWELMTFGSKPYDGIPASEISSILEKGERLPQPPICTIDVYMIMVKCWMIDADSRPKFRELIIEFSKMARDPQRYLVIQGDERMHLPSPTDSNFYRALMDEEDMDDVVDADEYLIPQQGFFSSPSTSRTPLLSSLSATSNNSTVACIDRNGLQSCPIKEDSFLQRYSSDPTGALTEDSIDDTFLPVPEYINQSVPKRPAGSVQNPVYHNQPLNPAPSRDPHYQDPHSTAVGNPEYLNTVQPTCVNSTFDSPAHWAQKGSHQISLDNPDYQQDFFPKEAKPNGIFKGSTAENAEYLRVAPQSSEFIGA
Procedure: as §1, §2

EGFR (T790M) = target: T3, EGFR (T790M) (Homo sapiens, UniProt P00533, T790M); assay: EGFR tyrosine kinase inhibiting activity, ADP-Glo (EGFR (T790M) Kinase Enzyme System); settings: for EGFR Kinase inhibition: IC50 T790M: ATP 10 μM, max concentration 20 μM, >10: <50% inhibition at 10 μM, no active: almost no activity at 20 μM; for IC50: read-out: EGFR Kinase inhibition: IC50 T790M
T3 construct: purchased Promega V4506
T3 sequence (P00533 25-1210 T790M): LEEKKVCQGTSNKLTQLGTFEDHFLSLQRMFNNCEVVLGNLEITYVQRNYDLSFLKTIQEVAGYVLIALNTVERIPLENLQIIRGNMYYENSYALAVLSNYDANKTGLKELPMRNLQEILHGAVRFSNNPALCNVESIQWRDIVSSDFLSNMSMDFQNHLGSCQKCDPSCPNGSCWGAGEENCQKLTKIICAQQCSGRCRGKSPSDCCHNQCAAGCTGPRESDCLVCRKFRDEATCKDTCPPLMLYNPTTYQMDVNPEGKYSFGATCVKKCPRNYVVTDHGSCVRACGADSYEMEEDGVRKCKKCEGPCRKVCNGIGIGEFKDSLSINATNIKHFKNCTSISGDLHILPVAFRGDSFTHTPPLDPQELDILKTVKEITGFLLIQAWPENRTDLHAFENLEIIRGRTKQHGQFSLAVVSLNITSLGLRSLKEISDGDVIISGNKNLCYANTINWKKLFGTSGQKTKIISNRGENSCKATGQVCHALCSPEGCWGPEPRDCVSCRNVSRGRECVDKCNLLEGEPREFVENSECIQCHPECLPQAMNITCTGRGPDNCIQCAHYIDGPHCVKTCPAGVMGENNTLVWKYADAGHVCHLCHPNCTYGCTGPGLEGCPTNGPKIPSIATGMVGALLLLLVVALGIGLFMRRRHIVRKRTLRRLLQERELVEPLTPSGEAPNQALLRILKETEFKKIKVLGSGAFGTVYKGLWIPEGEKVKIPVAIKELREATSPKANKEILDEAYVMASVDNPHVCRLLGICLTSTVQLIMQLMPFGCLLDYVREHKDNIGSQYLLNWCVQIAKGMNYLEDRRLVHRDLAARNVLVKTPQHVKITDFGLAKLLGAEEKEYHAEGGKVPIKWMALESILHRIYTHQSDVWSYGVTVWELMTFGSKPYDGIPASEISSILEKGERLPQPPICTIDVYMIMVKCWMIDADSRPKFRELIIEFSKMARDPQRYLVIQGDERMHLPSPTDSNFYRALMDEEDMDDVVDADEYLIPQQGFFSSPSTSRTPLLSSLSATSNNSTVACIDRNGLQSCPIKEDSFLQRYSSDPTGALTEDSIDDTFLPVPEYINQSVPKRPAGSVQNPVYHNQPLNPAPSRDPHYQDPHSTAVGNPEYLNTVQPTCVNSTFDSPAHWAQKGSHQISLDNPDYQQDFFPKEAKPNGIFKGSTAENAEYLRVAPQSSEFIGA
Procedure: as §1, §2

EGFR (T790M, L858R) = target: T4, EGFR (T790M, L858R) (Homo sapiens, UniProt P00533, L858R/T790M); assay: EGFR tyrosine kinase inhibiting activity, ADP-Glo (EGFR (T790M, L858R) Kinase Enzyme System, DM); settings: for EGFR Kinase inhibition: IC50 DM: ATP 10 μM, max concentration 20 μM, >10: <50% inhibition at 10 μM, no active: almost no activity at 20 μM; for IC50: read-out: EGFR Kinase inhibition: IC50 DM
T4 construct: purchased Promega V5324
T4 sequence (P00533 25-1210 T790M/L858R): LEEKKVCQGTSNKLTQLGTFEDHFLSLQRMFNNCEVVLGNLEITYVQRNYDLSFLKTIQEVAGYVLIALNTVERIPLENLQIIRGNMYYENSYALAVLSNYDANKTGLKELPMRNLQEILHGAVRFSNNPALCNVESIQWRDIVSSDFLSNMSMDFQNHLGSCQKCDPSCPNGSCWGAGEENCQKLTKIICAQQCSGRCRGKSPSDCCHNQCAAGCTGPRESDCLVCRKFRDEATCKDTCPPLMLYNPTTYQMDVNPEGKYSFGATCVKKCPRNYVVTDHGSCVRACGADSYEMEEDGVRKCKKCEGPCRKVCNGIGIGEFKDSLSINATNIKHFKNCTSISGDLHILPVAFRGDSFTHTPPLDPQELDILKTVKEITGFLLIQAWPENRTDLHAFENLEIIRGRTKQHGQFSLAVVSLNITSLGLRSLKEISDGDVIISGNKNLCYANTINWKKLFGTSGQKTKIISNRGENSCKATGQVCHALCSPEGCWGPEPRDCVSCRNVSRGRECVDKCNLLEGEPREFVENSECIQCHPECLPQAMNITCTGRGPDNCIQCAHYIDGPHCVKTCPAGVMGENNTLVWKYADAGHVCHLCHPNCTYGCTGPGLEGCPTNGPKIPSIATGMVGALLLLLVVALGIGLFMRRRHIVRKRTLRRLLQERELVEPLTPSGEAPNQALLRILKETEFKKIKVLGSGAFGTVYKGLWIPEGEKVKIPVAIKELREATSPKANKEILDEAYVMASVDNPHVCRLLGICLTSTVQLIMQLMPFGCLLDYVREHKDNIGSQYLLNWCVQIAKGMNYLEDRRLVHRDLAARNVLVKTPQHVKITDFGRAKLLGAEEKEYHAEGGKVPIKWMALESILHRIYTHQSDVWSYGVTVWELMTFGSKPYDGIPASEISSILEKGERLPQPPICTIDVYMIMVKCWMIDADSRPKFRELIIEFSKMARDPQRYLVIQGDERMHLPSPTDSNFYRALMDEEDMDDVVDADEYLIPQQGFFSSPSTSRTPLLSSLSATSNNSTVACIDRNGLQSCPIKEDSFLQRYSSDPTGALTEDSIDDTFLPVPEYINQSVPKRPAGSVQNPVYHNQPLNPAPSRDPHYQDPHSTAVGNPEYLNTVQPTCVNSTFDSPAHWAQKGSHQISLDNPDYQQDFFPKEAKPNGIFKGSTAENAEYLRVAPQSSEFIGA
Procedure: as §1, §2

T1 sequence (P00533 25-1210 L858R): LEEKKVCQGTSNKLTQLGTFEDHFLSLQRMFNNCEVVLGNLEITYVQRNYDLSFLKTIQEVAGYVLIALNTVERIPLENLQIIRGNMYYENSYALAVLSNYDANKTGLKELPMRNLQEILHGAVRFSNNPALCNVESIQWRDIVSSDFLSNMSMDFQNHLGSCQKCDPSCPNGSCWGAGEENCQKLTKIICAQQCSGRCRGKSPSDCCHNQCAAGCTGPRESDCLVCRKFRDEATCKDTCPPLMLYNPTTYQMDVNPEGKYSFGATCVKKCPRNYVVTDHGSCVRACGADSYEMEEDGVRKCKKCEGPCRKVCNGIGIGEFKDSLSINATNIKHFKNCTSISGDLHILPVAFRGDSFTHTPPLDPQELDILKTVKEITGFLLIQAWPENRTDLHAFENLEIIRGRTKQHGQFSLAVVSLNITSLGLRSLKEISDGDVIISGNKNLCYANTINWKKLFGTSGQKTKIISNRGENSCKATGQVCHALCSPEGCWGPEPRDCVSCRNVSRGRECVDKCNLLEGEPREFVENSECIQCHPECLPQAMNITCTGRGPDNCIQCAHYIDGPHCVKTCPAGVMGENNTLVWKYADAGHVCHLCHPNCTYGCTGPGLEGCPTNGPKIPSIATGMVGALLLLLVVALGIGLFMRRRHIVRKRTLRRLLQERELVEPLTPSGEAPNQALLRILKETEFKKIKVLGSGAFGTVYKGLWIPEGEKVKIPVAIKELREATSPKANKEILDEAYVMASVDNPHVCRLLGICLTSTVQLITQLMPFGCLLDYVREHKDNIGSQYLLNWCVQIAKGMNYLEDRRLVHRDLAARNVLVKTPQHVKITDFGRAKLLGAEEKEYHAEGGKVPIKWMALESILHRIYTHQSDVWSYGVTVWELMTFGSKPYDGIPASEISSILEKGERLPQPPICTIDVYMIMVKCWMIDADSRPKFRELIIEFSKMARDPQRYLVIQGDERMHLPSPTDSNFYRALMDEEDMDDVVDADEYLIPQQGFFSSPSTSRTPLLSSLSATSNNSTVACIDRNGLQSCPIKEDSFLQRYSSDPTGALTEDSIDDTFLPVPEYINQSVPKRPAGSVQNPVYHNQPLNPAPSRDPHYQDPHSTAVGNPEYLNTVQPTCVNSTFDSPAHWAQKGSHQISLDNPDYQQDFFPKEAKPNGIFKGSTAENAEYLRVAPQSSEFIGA

| Structure (SMILES) | IC50 (EGFR (L858R)) [nM] | IC50 [1] [nM] | EGFR Kinase inhibition: IC50 T790M (EGFR (T790M)) | EGFR Kinase inhibition: IC50 DM (EGFR (T790M, L858R)) | IC50 (EGFR (T790M)) [nM] | IC50 (EGFR (T790M, L858R)) [nM] |
| --- | --- | --- | --- | --- | --- | --- |
| O=C(CN1CCN(CCF)CC1)N1CCc2c(sc3ncnc(N[C@H](CO)c4ccccc4)c23)C1 [P3, (S)-2-(4-(2-Fluoroethyl)piperazin-1-yl)-1-(4-((2-hydroxy-1phenylethyl)amino)-5,8-dihydropyrido[4′,3′:4,5]thieno[2,3-d]pyrimidin-7(6H)-yl)ethan-1-one] | 2670 | 4370 | no active | no active |  |  |
| O=C(CCN1CCN(CCF)CC1)N1CCc2c(sc3ncnc(N[C@H](CO)c4ccccc4)c23)C1 [P4, (S)-3-(4-(2-Fluoroethyl)piperazin-1-yl)-1-(4-((2-hydroxy-1phenylethyl)amino)-5,8-dihydropyrido[4′,3′:4,5]thieno[2,3-d]pyrimidin-7(6H)-yl)propan-1-one] | 1830 | 2830 | no active | no active |  |  |
| O=C(/C=C/CN1CCN(CCF)CC1)N1CCc2c(sc3ncnc(N[C@H](CO)c4ccccc4)c23)C1 [P2, (S,E)-4-(4-(2-Fluoroethyl)piperazin-1-yl)-1-(4-((2-hydroxy-1phenylethyl)amino)-5,8-dihydropyrido[4′,3′:4,5]thieno[2,3-d]pyrimidin-7(6H)-yl)but-2-en-1-one] | 9 | 44 |  |  | 8970 | > 10000 |
| OC[C@@H](Nc1ncnc2sc3c(c12)CCN(CCF)C3)c1ccccc1 [P1] | 3410 | 2310 | no active | no active |  |  |
| C[C@@H](Nc1ncnc2sc3c(c12)CCN(C(=O)/C=C/CN1CCN(CCF)CC1)C3)c1ccccc1 [P5, (R,E)-4-(4-(2-Fluoroethyl)piperazin-1-yl)-1-(4-((1-phenylethyl)amino)-5,8-dihydropyrido[4′,3′:4,5]thieno[2,3-d]pyrimidin-7(6H)-yl)but-2-en-1-one] | 27 | 130 |  |  | > 10000 | > 10000 |

Results, then the compound that gave them:

| IC50 (EGFR (L858R)) [nM] | IC50 [1] [nM] | EGFR Kinase inhibition: IC50 T790M (EGFR (T790M)) | EGFR Kinase inhibition: IC50 DM (EGFR (T790M, L858R)) | IC50 (EGFR (T790M)) [nM] | IC50 (EGFR (T790M, L858R)) [nM] | Structure (SMILES) |
| --- | --- | --- | --- | --- | --- | --- |
| 1380 | 4310 | no active | no active |  |  | O=C(/C=C/CN1CCN(CCF)CC1)N1CCc2c(sc3ncnc(Nc4cccc(Br)c4)c23)C1 [P8] |
| 51 | 374 | no active | no active |  |  | COC[C@@H](Nc1ncnc2sc3c(c12)CCN(C(=O)/C=C/CN1CCN(CCF)CC1)C3)c1ccccc1 [P7] |
| 31 | 67 |  |  | > 10000 | > 10000 | O=C(/C=C/CN1CCN(CCOCCF)CC1)N1CCc2c(sc3ncnc(N[C@H](CO)c4ccccc4)c23)C1 [P9] |
| 336 | 896 | no active |  |  | > 10000 | O=C(/C=C/CN1CCN(CCF)CC1)N1CCc2c(sc3ncnc(O[C@@H](c4ccccc4)C(F)(F)F)c23)C1 [P6, (S,E)-4-(4-(2-Fluoroethyl)piperazin-1-yl)-1-(4-(2,2,2-trifluoro-1-phenylethoxy)-5,8-dihydropyrido[4′,3′:4,5]thieno[2,3-d]pyrimidin-7 (6H)-yl)but-2-en-1-one] |
| 52 | 90 |  |  | > 10000 | > 10000 | O=C(/C=C/CN1CCN(CCOCCOCCOCCF)CC1)N1CCc2c(sc3ncnc(N[C@H](CO)c4ccccc4)c23)C1 [P10] |
